# Measured values from patent US9439431B2, “Pesticidal mixtures comprising isoxazoline derivatives” (Syngenta Participations AG, priority 2011, dated 2016).
# Tests used:
# Assay type in all cases: cell-based
# [1] = system: Mycosphaerella arachidis (syn. Cercospora arachidicola); assay: Mycosphaerella arachidis (syn. Cercospora arachidicola) growth inhibition in nutrient broth (microtiter plate, photometric); conditions: approximately 5-6 days
# Procedure: (§1) Brown leaf spot of groundnut (peanut): Conidia of the fungus from cryogenic storage were directly mixed into nutrient broth (potato dextrose broth). After placing a (DMSO) solution of the test compounds into a microtiter plate (96-well format) the nutrient broth containing the fungal spores was added. The test plates were incubated at 24° C. and the inhibition of growth was determined photometrically after approximately 5-6 days at 620 nm. Two replicates per treatment were evaluated
# Gaeumannomyces graminis = Gaeumannomyces graminis growth inhibition in nutrient broth (microtiter plate, photometric); conditions: 48 hours
# Procedure: as §1, with “Mycelial fragments” for “Brown leaf spot of groundnut (peanut): Conidia”, “48 hours” for “approximately 5-6 days”, “evaluated.” for “evaluated”
# Septoria tritici = Septoria tritici (leaf blotch) growth inhibition in nutrient broth (microtiter plate, photometric); conditions: 72 hours
# Procedure: as §1, with “Conidia” for “Brown leaf spot of groundnut (peanut): Conidia”, “72 hours.” for “approximately 5-6 days at 620 nm.”, “evaluated.” for “evaluated”
smiles,measurement,setting,value
Cn1cc(C(=O)Nc2cccc3c2C2CCC3C2=C(Cl)Cl)c(C(F)F)n1 (centres unmarked) [C-IIIA],Observed control %,[1]; C-IIIA 0.0156 ppm alone,20.0%
same,Observed control %,[1]; C-IIIA 0.0313 ppm alone,90.0%
"CO/C=C(/C(=O)OC)c1ccccc1Oc1cc(Oc2ccccc2C#N)ncn1 [azoxystrobin, Azoxystrobin]",Observed control %,Gaeumannomyces graminis; azoxystrobin 0.0625 ppm alone,0.0%
same,Observed control %,Gaeumannomyces graminis; azoxystrobin 0.1250 ppm alone,20.0%
same,Observed control %,Gaeumannomyces graminis; azoxystrobin 0.2500 ppm alone,20.0%
same,Observed control %,Gaeumannomyces graminis; azoxystrobin 0.5000 ppm alone,50.0%
same,Observed control %,Gaeumannomyces graminis; azoxystrobin 1.0000 ppm alone,50.0%
same,Observed control %,Gaeumannomyces graminis; azoxystrobin 2.0000 ppm alone,50.0%
"CC(C1CC1)C(O)(Cn1cncn1)c1ccc(Cl)cc1 (centres unmarked) [cypropconazole, Cyproconazole]",Observed control %,Septoria tritici; cypropconazole 0.0625 ppm alone,0.0%
same,Observed control %,Septoria tritici; cypropconazole 0.1250 ppm alone,0.0%
same,Observed control %,Septoria tritici; cypropconazole 0.2500 ppm alone,0.0%
same,Observed control %,Septoria tritici; cypropconazole 0.5000 ppm alone,70.0%
same,Observed control %,Septoria tritici; cypropconazole 1.0000 ppm alone,90.0%
same,Observed control %,Septoria tritici; cypropconazole 2.0000 ppm alone,90.0%
